Test results taken from the supplement of paper PMC10307832.

Key:
Experiment in all cases: relative viability (nuclei count vs DMSO), 5 days (fraction); higher = more cells survive
Shikonin + Navitoclax = compound: CC(C)=CC[C@@H](O)C1=CC(=O)c2c(O)ccc(O)c2C1=O [Shikonin] + CC1(C)CCC(c2ccc(Cl)cc2)=C(CN2CCN(c3ccc(C(=O)NS(=O)(=O)c4ccc(N[C@H](CCN5CCOCC5)CSc5ccccc5)c(S(=O)(=O)C(F)(F)F)c4)cc3)CC2)C1 [Navitoclax] (partner 0.5 µM)
How it was run: (§1)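 A single step with final 0.05% Triton X-100, 1% formaldehyde and 1 ug/ml Hoechst fixed the cells and stained nuclei 5 days after treatment. Lung cancer cell lines in 1536-well plates had been treated by pin tool the day after seeding with one drug alone or a fixed anchor-drug dose plus five library-drug doses (not always all listed) in √10 steps, and nuclei were counted on 4× images. Relative viability is the ratio of nuclei in treated wells to nuclei in vehicle wells, taken as the median of duplicate plates.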

Shikonin + Phenformin = compound: CC(C)=CC[C@@H](O)C1=CC(=O)c2c(O)ccc(O)c2C1=O [Shikonin] + N=C(N)NC(=N)NCCc1ccccc1 [Phenformin] (partner 250 µM)
How it was run: as §1

[1] = compound: CC(C)N(CCCNC(=O)Nc1ccc(C(C)(C)C)cc1)C[C@H]1O[C@@H](n2ccc3c(N)ncnc32)[C@H](O)[C@@H]1O + CCNC(=O)c1noc(-c2cc(C(C)C)c(O)cc2O)c1-c1ccc(CN2CCOCC2)cc1 [Luminespib] (partner 0.01 µM)
How it was run: as §1

[2] = compound: CC(C)N(CCCNC(=O)Nc1ccc(C(C)(C)C)cc1)C[C@H]1O[C@@H](n2ccc3c(N)ncnc32)[C@H](O)[C@@H]1O + Cc1nc(NC(=O)N2CCC[C@H]2C(N)=O)sc1-c1ccnc(C(C)(C)C(F)(F)F)c1 [Alpelisib] (partner 2 µM)
How it was run: as §1

| Cell Line | relative viability (Shikonin + Navitoclax; first compound 0.01 µM) | relative viability (Shikonin + Navitoclax; first compound 0.1 µM) | relative viability (Shikonin + Navitoclax; first compound 0.3162 µM) | relative viability (Shikonin + Navitoclax; first compound 1 µM) | relative viability (Shikonin + Phenformin; first compound 0.01 µM) | relative viability (Shikonin + Phenformin; first compound 0.1 µM) | relative viability (Shikonin + Phenformin; first compound 0.3162 µM) | relative viability (Shikonin + Phenformin; first compound 1 µM) | relative viability ([1]; first compound 0.08 µM) | relative viability ([1]; first compound 0.253 µM) | relative viability ([1]; first compound 0.8 µM) | relative viability ([1]; first compound 2.53 µM) | relative viability ([1]; first compound 8 µM) | relative viability ([2]; first compound 0.08 µM) | relative viability ([2]; first compound 0.253 µM) | relative viability ([2]; first compound 0.8 µM) | relative viability ([2]; first compound 2.53 µM) | relative viability ([2]; first compound 8 µM) |
| --- | --- | --- | --- | --- | --- | --- | --- | --- | --- | --- | --- | --- | --- | --- | --- | --- | --- | --- |
| NCI-H322M | 1.23 | 1.21 | 1.32 | 1.27 | 0.871 | 0.856 | 0.754 | 0.836 | 0.92 | 0.759 | 0.889 | 0.76 | 0.913 | 0.732 | 0.775 | 0.766 | 0.829 | 0.829 |
| NCI-H441 | 0.615 | 0.76 | 0.742 | 0.396 | 0.941 | 1.03 | 0.761 | 0.815 | 0.39 | 0.334 |  | 0.278 | 0.368 |  | 0.653 | 0.88 | 0.677 | 0.712 |
| NCI-H460 | 1.16 | 1.49 | 1.25 | 1.19 | 0.515 | 0.64 | 0.51 | 0.474 | 0.0341 | 0.0252 | 0.0359 | 0.0291 | 0.0376 | 0.378 | 0.582 | 0.442 | 0.301 | 0.396 |
| NCI-H520 |  | 1.1 | 1.19 | 1 | 0.504 | 0.809 | 0.567 | 0.6 | 0.22 | 0.219 | 0.239 | 0.221 | 0.232 | 0.796 | 0.879 | 0.758 | 0.789 | 0.861 |
| NCI-H596 | 0.936 | 0.911 | 0.968 | 0.907 | 0.798 | 0.858 | 0.893 | 0.897 | 1.06 |  | 0.923 | 0.955 | 1.12 | 0.567 | 0.42 | 0.54 | 0.434 | 0.482 |
| NCI-H647 | 0.991 | 0.886 | 1.25 | 1.02 | 0.572 | 0.677 | 0.477 | 0.538 | 0.267 | 0.461 |  | 0.241 | 0.245 | 1.14 |  | 1.08 | 1.05 | 1.25 |
| NCI-H727 | 0.405 | 0.502 | 0.366 | 0.295 | 0.523 | 0.604 | 0.579 | 0.543 | 0.372 | 0.453 | 0.445 | 0.232 | 0.471 | 0.448 | 0.511 | 0.612 | 0.547 | 0.673 |
| NCI-H838 | 1.12 | 1.25 | 1.28 | 1.2 | 0.547 | 0.722 | 0.608 | 0.578 | 0.366 | 0.273 | 0.307 | 0.331 | 0.286 | 0.983 | 0.804 | 1.04 | 1.03 | 0.99 |
| NCI-H1355 | 0.81 | 0.939 | 0.995 | 0.983 | 0.438 | 0.483 | 0.46 | 0.476 | 0.763 | 0.614 | 0.679 | 0.609 | 0.665 | 0.768 | 0.809 |  | 0.772 | 0.804 |
| NCI-H1395 | 1.18 | 1.16 | 1.14 | 1.09 | 0.42 | 0.484 | 0.419 | 0.459 | 0.632 | 0.734 | 0.571 | 0.884 | 0.798 | 1.11 | 0.996 |  | 1.21 | 1.05 |
| NCI-H1437 | 1.14 | 1.09 | 1.14 | 1.12 | 0.299 | 0.338 | 0.337 | 0.321 | 1.07 | 1.02 | 1.14 | 1.15 | 1.05 | 0.9 | 1.01 | 1.1 | 0.903 | 0.945 |
| NCI-H1651 | 1.03 | 0.98 | 1.01 | 1.06 | 0.381 | 0.377 | 0.281 | 0.349 | 0.805 | 0.903 | 0.785 | 0.765 | 0.722 | 0.882 | 0.98 | 0.92 | 0.935 | 1.04 |
| NCI-H1666 | 0.923 | 1.02 | 0.962 | 0.723 | 0.558 | 0.605 | 0.552 | 0.548 | 0.963 | 0.987 | 1.07 | 0.999 | 0.941 | 0.888 | 0.825 | 0.895 | 0.943 | 1.02 |
| NCI-H1734 | 0.941 | 0.83 | 0.949 | 0.74 | 0.414 | 0.432 | 0.34 | 0.425 | 0.218 | 0.19 | 0.209 | 0.188 | 0.23 | 0.665 | 0.665 | 0.636 | 0.723 | 0.713 |
| NCI-H1755 | 1.04 | 0.988 | 1.14 | 1.07 | 0.696 | 0.668 | 0.659 | 0.55 | 0.553 | 0.53 | 0.367 | 0.43 | 0.349 | 0.891 | 0.929 | 0.905 | 0.882 | 0.84 |
| NCI-H1792 | 0.607 | 0.639 | 0.58 | 0.778 | 0.257 | 0.185 | 0.241 | 0.393 | 0.47 |  | 0.394 | 0.446 | 0.439 | 0.671 | 0.497 | 0.688 | 0.696 | 0.668 |
| NCI-H1793 | 0.43 | 0.379 | 0.407 | 0.76 | 0.424 | 0.417 | 0.41 | 0.404 | 0.18 |  | 0.292 | 0.171 | 0.203 | 0.554 |  | 0.715 | 0.527 | 0.669 |
| NCI-H1915 | 0.719 | 0.793 | 0.795 | 0.847 | 0.383 | 0.396 | 0.368 | 0.395 | 0.757 | 0.819 | 0.676 | 0.789 | 0.77 | 1.07 | 1.05 | 0.974 | 1.05 | 0.968 |
